How the values were obtained:
[1] = Physical stability of amorphous form on storage under ambient conditions, followed by XRPD; format: physicochemical
Description: (§1) The physical form of onapristone, either as the bulk drug substance or in its compositions, was established using X-ray powder diffraction (XRPD). XRPD patterns were obtained using a Rigaku MiniFlex powder diffraction system, equipped with a horizontal goniometer operating in the θ/2θ mode. The X-ray source was nickel-filtered Kα emission of copper (1.54184 Å). Samples were packed into the sample holder using a back-fill procedure, and were scanned over the range of 3.5 to 40 degrees 2θ at a scan rate of 0.5 degrees 2θ/min. Using a data acquisition rate of 1 point per second, these scanning parameters equate to a step size of 0.0084 degrees 2θ. Calibration of the diffractometer system was effected using purified talc as a reference material. The intensity scale for all diffraction patterns was normalized so that the relative intensity of the most intense peak in the pattern equaled 100%.
After the initial characterization, the substance was placed in a glass vial, and stored under ambient conditions (temperature of 22-24° C.). The product was subsequently obtained after storage under ambient conditions for 25 weeks, 43 weeks, and 16.5 months.
XRPD patterns of these samples were obtained when initially received and after 12 weeks, 20 weeks, 36 weeks, and 15 months had elapsed. The XRPD patterns obtained for sample SSF-PDS-027-001A are collected in FIG. 2, while the XRPD patterns obtained for sample SSF-PDS-027-001B are collected in FIG. 3.

[2] = Physical form by X-ray powder diffraction (XRPD); format: physicochemical; details: no sharp scattering peaks attributable to crystalline onapristone
Description: In one aspect, amorphous onapristone is formed by adding onapristone to water, dissolving the onapristone in the water by adding one equivalent of an acid solution, and subsequently increasing the pH of the solution by the addition of one equivalent of base. At the end of this process, an amorphous precipitate is formed which may be isolated and characterized. […] The presence of a crystalline substance is indicated by the presence of sharp peaks (i.e., those whose width at half-height is in the range of 0.3 to 0.5 degrees 2θ) in an XRPD pattern, while the XRPD pattern of an amorphous substance is characterized by the presence of broad scattering peaks (i.e., those whose width at half-height is in the range of at least 8 to 12 degrees 2θ).
as §1, with “Calibration of the diffractometer system was effected using purified talc as a reference material. The intensity scale for all diffraction patterns was normalized so that the relative intensity of the most intense peak in the pattern equaled 100%.” left out

SMILES	storage period over which the drug substance remained amorphous ([1]; stored under ambient conditions (22-24° C.)) [months]	storage period over which the drug substance remained amorphous ([1]; stored under ambient conditions (22-24° C.), listed as pH-cycled product)	physical form of onapristone by XRPD as initially prepared [2]	storage period over which the drug substance remained amorphous ([1]; stored under ambient conditions)
CN(C)c1ccc([C@H]2C[C@]3(C)[C@@H](CC[C@]3(O)CCCO)[C@@H]3CCC4=CC(=O)CCC4=C32)cc1 [pH-cycled onapristone]	≥ 16.5	at least 16.5 months	amorphous	–
CN(C)c1ccc([C@H]2C[C@]3(C)[C@@H](CC[C@]3(O)CCCO)[C@@H]3CCC4=CC(=O)CCC4=C32)cc1 [solvation-desolvation product]	–	–	–	at least 29 weeks

From US10548905B2, “Amorphous onapristone compositions and methods of making the same” (CONTEXT BIOPHARMA INC., priority 2015, dated 2020)
